# Assay results from patent publication EP1464336A1, “Use of tryprostatin A for the reversal of cancer drug resistance” (Humboldt-Universität zu Berlin, priority 2003, dated 2004).
# Experiments:
# [1] = test system: microtubule-associated protein (MAP)-dependent microtubule assembly; details: literature (Usui T et al., Biochem J 1998); cited from earlier work
# [2] = test system: control cells (EPG85-257P); assay: C6-NBD-PS outward translocation assay; format: cell-based, human; details: 10 µM inhibitor; 30 minutes at 37°C (Fig. 8)
# Experimental: (§1) To measure redistribution of C6-NBD-PS from the cytoplasmic to the exoplasmic leaflet, labelling of the cytoplasmic leaflet is preconditional. Previously, we have introduced a method to achieve efficient labeling of the plasma membrane inner leaflet of the gastric carcinoma cell line EPG85-257 (Pohl, A., Lage, H., Müller, P., Pomorksi, T., and Herrmann. A. (2002) Biochem. J. 365, 259-268). Briefly, cells were preincubated with or without MDR inhibitors, labelled with 5 µM C6-NBD-PS, and incubated at 20°C for 30 minutes to allow inward movement of the NBD analogue. C6-NBD-PS remaining on the cell surface was extracted twice by incubation with 2% (w/v) BSA in mPBS for 10 minutes on ice. Before starting the outward translocation assay, the medium was removed, and cells were washed with ice-cold mPBS. For t=0', ice-cold medium containing 2% (w/v) BSA and 5 mM DFP ( = diisopropyl fluoro-phosphate) in mPBS with or without inhibitor was immediately added to the cell dish for 10 minutes. To measure C6-NBD-PS outward translocation, medium prewarmed to 37°C was added to the dish, and cells were incubated at 37°C for 30 minutes (t = 30'). Removal of the BSA-containing media and a second extraction with 2% BSA in mPBS for 10 minutes terminated incubations, followed by lipid analysis.
# (§2) After the incubations, the second BSA back exchange medium was pooled with the first, and cells scraped into mPBS. For analysis of outward translocation and of metabolic conversion of C6-NBD-PS, lipids from both scraped cells and media were extracted with isopropanol/chloroform/(5.5:1, v/v) to prevent substantial loss into the aqueous phase. Samples were centrifuged at 780 g for 5 minutes, the supernatant transferred into new glass tubes and dried, dissolved in chloroform/methanol (1:1) and quantified spectroscopically. For C6-NBD-PC analysis, lipids from both cells and incubation media were extracted by the method of Bligh and Dyer (Bligh, E., and Dyer, W. (1959) Can. J Biochem. Physiol. 37, 911-917) using 20 mM acetic acid in the aqueous phase. After 2-D separation [I, chloroform/methanol/25% ammonium hydroxide (65:25:4, v/v); II, chloroform/acetone/methanol/acetic acid/water (10:4:2:2:1, v/v)] on thin layer chromatography plates, fluorescent lipid spots were visualized under ultraviolet light, scraped, and quantified as described before (Pomorski, T., Müller, P., Zimmermann, B., Burger, K., Devaux, P., and Herrmann, A. (1996) J. Cell Sci. 109, 687-698).
# [3] = test system: BCRP overexpressing cells (EPG85-257RNOV); assay: C6-NBD-PS outward translocation assay; format: cell-based, human; details: pretreatment with 10 µM inhibitor; 30 minutes at 37°C (Fig. 8)
# Experimental: as §1, §2
# [4] = test system: MDR1 Pgp overexpressing subline (EPG85-257RDB); assay: C6-NBD-PS outward translocation assay; format: cell-based, human; details: 10 µM inhibitor; 30 minutes at 37°C (Fig. 8)
# Experimental: as §1, §2
# [5] = test system: parental, drug-sensitive gastric carcinoma cell variant EPG85-257P; assay: Mitoxantrone accumulation assay (flow cytometry); format: cell-based, human; details: TPS-A (Fig 4A)
# Experimental: (§3) Cellular mitoxantrone accumulation was determined according to the procedure described in Lage H et al., FEBS Lett 2001;503:179-84. Briefly, 4 x 10^5 cells were seeded out in 6-well plates 78 hours prior to the experiment. Incubation with mitoxantrone (0, 1,5 and 10 µg/ml) was performed for 60 minutes at 37°C and 70-80 % cellular confluence. For kinetics of intracellular enrichment of mitoxantrone, cells were exposed to 10 µg/ml mitoxantrone for 0, 5, 10 and 60 min. Cells were washed with ice-cold PBS, trypsinized and resuspended in 4 °C PBS at a concentration of 4 x 10^5 cells/ml. Intracellular fluorescence of mitoxantrone was determined by flow cytometry (Becton-Dickinson, San Jose, CA). The cells were excited at 480 nm and emission was measured at 630 nm. A minimum of 10^4 cells was analyzed for each sample. All assays were performed at least in three independent experiments, each time with triplicate wells.
# (§4) To provide confirmation that the observed resensitization to mitoxantrone of BCRP-overexpressing cells was indeed the result of BCRP inhibition by TPS-A, a mitoxantrone accumulation assay was performed. The known so-called "multispecific" MDR modulator GF120918, inhibiting P-gp- and BCRP activity, was used as a positive control for P-gp- and BCRP antagonism.
# [6] = test system: drug-sensitive, parental cell line MCF-7; assay: Mitoxantrone accumulation assay (flow cytometry); format: cell-based, human; details: increasing modulator concentrations
# Experimental: as §3, §4
# [7] = test system: MCF-7/AdrVp; assay: Mitoxantrone accumulation assay (flow cytometry); format: cell-based, human; details: 50 µM TPS-A
# Experimental: as §3, §4
# [8] = test system: BCRP-positive, atypical MDR gastric carcinoma cell line EPG85-257RNOV; assay: Mitoxantrone accumulation assay (flow cytometry); format: cell-based, human; details: 10 µM TPS-A; mitoxantrone 60 min at 37 °C (Fig 4A)
# Experimental: as §3, §4
# [9] = test system: P-gp-expressing, classical MDR variant EPG85-257RDB; assay: Mitoxantrone accumulation assay (flow cytometry); format: cell-based, human; details: TPS-A (Fig 4A)
# Experimental: as §3, §4
# [10] = test system: BCRP-transfected cell variant MCF-7/BCRP clone 8; assay: Mitoxantrone accumulation assay (flow cytometry); format: cell-based, human; details: 50 µM TPS-A; compared to drug accumulation level in the untreated, parental control cell line (Fig 4B)
# Experimental: as §3, §4
smiles,measurement,setting,value
"COc1ccc2c(C[C@@H]3NC(=O)[C@@H]4CCCN4C3=O)c(CC=C(C)C)[nH]c2c1 [TPS-A, tryprostatin A]",final concentration inhibiting MAP-dependent microtubule assembly / cell cycle progression at the M phase,[1],250 µM
same,PS transport (C6-NBD-PS outward translocation),[2],did not affect PS transport significantly
same,amount of C6-NBD-PS in the BSA containing medium (outward translocation),[3],sharp and highly significant decrease
same,PS analogue outward translocation (MDR1 Pgp lipid transport activity),[4],did not affect
same,mitoxantrone accumulation,[5],slightly increased mitoxantrone accumulation
same,effect on drug accumulation,[6],only a weak dosage-depending effect
same,increase of drug accumulation with respect to control cells,[7],45%
same,increase to % of the mitoxantrone accumulation level of untreated drug-sensitive cells,[8],40%
same,drug transporter inhibiting effect (mitoxantrone accumulation),[9],No significant drug transporter inhibiting effect
same,inhibition of the mitoxantrone pump activity,[10],completely
